Where a SMILES comes first, the peptide text is derived from it.

The logP is a log measure of how a compound divides between an organic and an aqueous phase. Read a low logP as lower lipophilicity. In turn, `NC(Cc1ccc(O)cc1)C(=O)NCC(=O)NC(Cc1ccccc1)C(=O)O` (stereo not drawn) (H-Tyr-Gly-Phe-OH; configuration not given here) registered a logP of -1.86.
`NC(=O)c1cc(OCCNCC(O)CON=C(C2CC2)C2CC2)ccc1O` (stereo not drawn) gave a log partition coefficient (logP) of 1.69.
For `CON(C)C(=O)Nc1ccc(OC(C)CC2CCCCC2)cc1` (stereo not drawn), the logP stood at 4.51.
As for `CC1=C(CC(=O)O)c2cc(F)ccc2C1=Cc1ccc(S(C)(=O)=O)cc1`, the figure is 3.29.
`CNc1ccc(-c2cn3cc(SC)ccc3n2)cc1` returned a logP of 3.9.
With `CC(C)(O)C1CCC2(C)CCCC(C)(O)C2C1` (stereo not drawn), the logP turned out to be 3.04.
In turn, `C=C(C)C(=O)OCCCCCCCC(C)C` displayed a logP of 5.28.
`O=C(NS(=O)(=O)c1cnccc1NC1CCCCCC1)N1CCCCCC1` registered a logP of 4.43.
Regarding `Nc1nnnn1-c1ccc2ccccc2c1`, the lipophilicity (logP) amounted to 2.08.
As for `COC(=O)C1=C(C)NC(C)=C(C(=O)OCc2cccnc2)C1c1cccc2c1OCO2` (stereo not drawn), the log partition coefficient (logP) amounted to 3.61.
Consider `CCCCCCCOc1ccccc1NC(=O)OC(C)CN(CC)CC` (stereo not drawn), for which the logP stood at 5.7.
Under `C[N+](C)([O-])CCCCc1ccccc1` stands 0.46; under `Cc1cccc(OCC2CN=C(N)O2)c1C` (stereo not drawn), 2.25; under `N[C@@H](Cc1c[nH]c2ccccc12)C(=O)N[C@@H](Cc1c[nH]c2ccccc12)C(=O)O` (H-Trp-Trp-OH), -0.27.
Under `COC1=C(Cl)C(=O)c2ccccc2C1=O` stands 2.15; under `Cc1nccc2c3ccccc3n(C)c12`, 3.01.
Under `CN(C)CCOc1c(Cl)cccc1Cl` stands 2.57; under `Cc1ccc2c(c1)C(=O)N(CCO[N+](=O)[O-])CO2`, 2.41; under `Nc1nc(N)c2c(N)cccc2n1`, 0.3.
Take `Cn1c2c(c3cc([N+](=O)[O-])ccc31)CCNC2`: the lipophilicity (logP) was 2.07.
The compound `CCCCCCNCCO` gave a logP of 1.67.
As for `CCOc1ccccc1NC(=O)OCCN1CCCCC1`, the figure is 3.59; as for `COc1ccc2cc(C(C)C(=O)OCOC(C)=O)ccc2c1` (stereo not drawn), 3.4; as for `CCOc1cc2ncnc(Nc3ccc(F)cc3)c2cc1OCC`, 3.73.
The compound `COC(=O)C(C)=CC1C(C(=O)OCc2cccc(COc3ccccc3)c2)C1(C)C` (stereo not drawn) yielded a logP of 6.06.
With `COc1ccc(C2Cc3c(C#N)cccc3N(CCN(C)C)C(=O)C2OC(C)=O)cc1` (stereo not drawn), the logP was 3.3.
`COC(=O)C(C)S(=O)(=O)c1ccc([N+](=O)[O-])cc1` (stereo not drawn): the logP was found to be 1.06.
As to `CCCCCCCCCCCCNCCO`, the logP was 4.51.
Under `CCOc1ccc(C(=O)OCCCn2ccc(=O)c(O)c2C)cc1` stands 1.79; under `CON=C(C(=O)NC1C(=O)N2C(C(=O)OCc3oc(=O)oc3C)=CCSC12)c1csc(N)n1` (stereo not drawn), 0.17.
Consider `COc1ccc(C2Cc3cc(Sc4ccccc4)ccc3N(CCN(C)C)C(=O)C2OC(C)=O)cc1` (stereo not drawn), for which the logP was 5.8.
Take `Nc1nnnn1-c1cccc(Cl)c1`: the logP turned out to be 1.44.
Take `Cc1ccnc2c1NC(=O)c1cccnc1N2C1CC1`: the lipophilicity (logP) amounted to 1.81.
Regarding `CCC(C)C(N)C(=O)NC(C)C(=O)NCC(=O)NC(Cc1ccccc1)C(=O)O` (stereo not drawn) (H-IAGF-OH; configuration not given here), the logP is -1.78.
The compound `COc1cc2ncnc(Nc3ccccc3F)c2cc1OC` yielded a lipophilicity (logP) of 2.2.
Under `CON(C)C(=O)c1cn2c(C)c(C)nc2c2c1CCC(c1ccccc1)O2` (stereo not drawn) stands 3.6; under `O=c1cc(CCl)occ1O`, 0.64; under `COc1ccc2c(c1)CCN(C)C2`, 2.32.
As for `C=Cn1c([N+](=O)[O-])cnc1C=Cc1ccc(C(=O)O)cc1`, the logP stood at 2.68.
`CC(C)C(NC(=O)C(N)Cc1ccccc1)C(=O)NC(Cc1ccc(O)cc1)C(=O)NC(Cc1ccccc1)C(=O)O` (stereo not drawn) (H-FVYF-OH; configuration not given here) showed a logP of -0.32.
On to `COc1ccccc1OCCN(C)C`, for which the logP was determined as 1.42.
The compound `Cc1c(C)c2ccc3occc3c2oc1=O` yielded a log partition coefficient (logP) of 2.9.
As to `Cc1ccc(C(=O)NN=Cc2c(CO)ccc(C)c2O)cc1`, the lipophilicity (logP) was 3.39.
With `CC(C)CC(NC(=O)C(NC(=O)C(N)C(C)O)C(C)C)C(=O)O` (stereo not drawn) (H-Thr-Val-Leu-OH; configuration not given here), the logP was -1.97.
The compound `CCN1CCCC1CNC(=O)c1c(OC)ccc(OC)c1O` (stereo not drawn) showed a logP of 2.82.
As for `Cc1ccc2c(c1)COP(=O)(OCC1C=CC(n3cc(C)c(=O)[nH]c3=O)O1)O2` (stereo not drawn), the figure is 0.73; as for `O=C(O)CCCCCON=C(c1cccc(C(F)(F)F)c1)c1ccncn1`, 3.55; as for `O=C(O)C(Cc1ccccc1)NC(=O)C1CCCN1` (stereo not drawn) (H-Pro-Phe-OH; configuration not given here), -2.07.
Turning to `CC(C)(C)N=O`, the log partition coefficient (logP) came to 0.91.
As for `CC(C)(C)c1ccc(OCC2CN=C(N)O2)cc1` (stereo not drawn), the figure is 2.84; as for `O=C(NC1CCCCCCC1)NS(=O)(=O)c1cnccc1NC1CCCCCC1`, 5.34; as for `NC(Cc1ccc(O)cc1)C(=O)N1CCCC1C(=O)O` (stereo not drawn) (H-Tyr-Pro-OH; configuration not given here), -2.03.
As for `CCCc1nc(NC)nc(N2CCOCC2)n1`, the figure is 2.15.
As for `Clc1cc(Br)cc(Cl)c1N=C1NCCN1`, the figure is 2.46; as for `CC(NC(=O)C(C)NC(=O)C(N)C(C)C)C(=O)NC(Cc1ccccc1)C(=O)O` (stereo not drawn) (H-VAAF-OH; configuration not given here), -1.91.
With `Nc1nc(N)c2c(S(=O)(=O)c3ccccc3)cccc2n1`, the logP worked out at 2.14.
For `COc1cc(Cl)cc(Cl)c1O`, the logP was 2.86.
Compound `COc1cc2c(Nc3cc(CC(=O)Nc4cccc(F)c4F)[nH]n3)ncnc2cc1OCCCN(CCO)CC(C)C` came in with a lipophilicity (logP) of 5.2.
Compound `COC(=O)N1CCN(C(=O)Cc2ccc(Cl)c(Cl)c2)C(CN2CCCC2)C1` (stereo not drawn) returned a log partition coefficient (logP) of 4.1.
As for `CCCc1nc(NCC)nc(N2CCOCC2)n1`, the log partition coefficient (logP) was 2.23.
Compound `O=C(NP(=O)(N1CC1)N1CC1)c1ccccc1` showed a logP of 0.81.
Under `O=[N+]([O-])c1ccc(CSc2ncnc3c2ncn3C2OC(CO)C(O)C2O)cc1` (stereo not drawn) stands 0.54; under `CCCCCCN=C=S`, 3.98.
`S=C=NCCCCCCCCCCc1ccccc1` gave a lipophilicity (logP) of 6.82.
Consider `O=c1ccc(/C=C/c2ccc(-n3ccnc3)cc2)n[nH]1`, for which the logP turned out to be 1.21.
`CCNc1nc(N)nc(O)n1` registered a lipophilicity (logP) of 1.08.
`c1nc(N2CCCC2)c2[nH]cnc2n1` came in with a log partition coefficient (logP) of 1.68.
For `CC(C)CC(NC(=O)C(NC(=O)C1CCCN1C(=O)C(N)C(C)C)C(C)C)C(=O)O` (stereo not drawn) (H-VPVL-OH; configuration not given here), the logP was -1.91.
The compound `Cc1nc2c3c(c(C(=O)N4CCC4)cn2c1C)CCC(c1ccccc1)O3` (stereo not drawn) had a log partition coefficient (logP) of 3.4.
Regarding `CSc1cccc2nc(N)nc(N)c12`, the lipophilicity (logP) came out at 1.81.
On to `Cc1ccc(CO)c(C=NNC(=O)c2cccs2)c1O`, for which the lipophilicity (logP) came to 3.03.
`O=C1c2ccccc2-c2nnc(-c3ccccc3O)cc21` yielded a logP of 3.15.
On to `CCN(C)CC(=O)Nc1c(C)cccc1C`, for which the lipophilicity (logP) was 1.82.
The compound `NC1CCN(c2nc3c(cc2F)c(=O)c(C(=O)O)cn3-c2ccc(F)cc2F)C1` (stereo not drawn) displayed a log partition coefficient (logP) of -0.46.
The compound `CN1CCCNCC1` registered a log partition coefficient (logP) of -0.4.
For the compound `COC(=O)Cc1ccc(O)cc1`, the logP was determined as 1.63.
In the case of `Cc1cnc(C(=O)OCCCn2ccc(=O)c(O)c2C)cn1`, the lipophilicity (logP) was -0.49.
Compound `Cc1ccc(Br)cc1F` gave a logP of 3.64.
Turning to `CC(=O)Nc1ccc(S(=O)(=O)Nc2cc(C)nc(C)n2)cc1`, the logP was -0.14.
As for `CC(C)NC(=NC#N)NS(=O)(=O)c1cnccc1NC1CCCCCCC1`, the logP came to 2.58.
In turn, `COc1coc(CCl)cc1=O` had a logP of 0.16.
In turn, `CCCCCNC(=O)N1C(=O)N(C)CC1O` (stereo not drawn) came in with a logP of 1.75.
Take `Clc1nc(-c2ccccc2)nc2ccccc12`: the logP worked out at 4.47.
Under `C=CCN(N=O)C(=O)N(CCC)CCCCC(NC(C)=O)C(=O)NCc1ccccc1` (stereo not drawn) stands 2.11; under `CC(C)CC(NC(=O)C(N)CO)C(=O)O` (stereo not drawn) (H-Ser-Leu-OH; configuration not given here), -2.49; under `OCCCCCCNc1ncnc2nc[nH]c12`, 1.14.
As for `CC(Nc1ccc([N+](=O)[O-])cc1[N+](=O)[O-])C(=O)O` (stereo not drawn), the lipophilicity (logP) worked out at 2.09.
As for `CC(NCC(O)CON=C(C1CC1)C1CC1)c1ccccc1` (stereo not drawn), the log partition coefficient (logP) came out at 2.32.
The compound `C[N+](C)([O-])CCCC(c1ccccc1)c1ccccc1` gave a log partition coefficient (logP) of 1.45.
In turn, `c1ccc(CCN2CCN(CCn3nc4ccccc4n3)CC2)cc1` showed a lipophilicity (logP) of 3.72.
In turn, `OCCCCCCCCNc1ncnc2c1ncn2C1OC(CO)C(O)C1O` (stereo not drawn) registered a logP of 1.3.
Regarding `O=C1CCC(=O)N1c1cccc(Cl)c1Cl`, the logP was 0.9.
`CN(C)CC(c1ccccc1)c1ccccc1` yielded a logP of 3.58.
As for `O=c1cc(CSc2nc3ccccc3[nH]2)occ1O`, the figure is 1.51; as for `CCCCOC1C(=O)NC(=O)NC1=[N+]=[N-]` (stereo not drawn), -0.55.
Under `Cc1cc2c(o1)c(C)c(C)c1ccc(=O)oc12` stands 3.26; under `Nc1nc(N)c2c(F)cccc2n1`, 1.19; under `COC(=O)C(C)NP(=O)(OCC1C=CC(n2cc(C)c(=O)[nH]c2=O)O1)Oc1ccc(Cl)cc1` (stereo not drawn), 1.43.
`c1ccc2c(c1)OCC(Cc1ncc[nH]1)O2` (stereo not drawn) showed a logP of 1.92.
`CC(C)(C)NCc1ccc(S(=O)(=O)c2csc(S(N)(=O)=O)c2)cc1` returned a logP of 1.76.
`CC(C)Nc1[nH]cnc2ncnc1-2`: the logP stood at 1.38.
With `CC(C)C(NC(=O)C(N)Cc1ccccc1)C(=O)O` (stereo not drawn) (H-Phe-Val-OH; configuration not given here), the logP is -1.68.
As to `Cc1nc2ccccc2c(=O)n1CC(=O)N1CCCCC1`, the logP was 1.27.
Compound `NC1=NC(C2OCCc3ccccc32)CS1` (stereo not drawn) displayed a lipophilicity (logP) of 1.79.
`CCc1cccc(COC(=O)C2C(C=C(C)C)C2(C)C)c1` (stereo not drawn) had a logP of 6.51.
Compound `C#CCC(O)(c1ccc(C(C)C)cc1)c1cccnc1` (stereo not drawn) came in with a logP of 2.16.
As for `Clc1cccc(N2CCN(CCn3nnc4ccccc43)CC2)c1`, the lipophilicity (logP) was 3.45.
Turning to `CCCCCC(=O)c1ccncc1`, the lipophilicity (logP) worked out at 2.9.
